Data from patent US5635593A (priority 1995, dated 1997).
Square brackets hold non-standard residues; d marks the D form. Peptide text beside a SMILES is read from it. Oic = O=C(O)[C@@H]1C[C@@H]2CCCC[C@@H]2N1; Hyp = O=C(O)[C@@H]1C[C@@H](O)CN1; dTic = O=C(O)[C@H]1Cc2ccccc2CN1; 2Thi = N[C@@H](Cc1cccs1)C(=O)O

What was measured:
BK2 -receptor = target: T1, BK2 -receptor (Rattus norvegicus, UniProt P25023); test: rat uterus (RU) in vitro, antagonism of BK; settings: against BK
T1 construct: guinea-pig ileum (GPI), rat uterus (RU) and rabbit jugular vein (RJV); from tissue; host or cells: rat uterus
T1 sequence (P25023 1-396): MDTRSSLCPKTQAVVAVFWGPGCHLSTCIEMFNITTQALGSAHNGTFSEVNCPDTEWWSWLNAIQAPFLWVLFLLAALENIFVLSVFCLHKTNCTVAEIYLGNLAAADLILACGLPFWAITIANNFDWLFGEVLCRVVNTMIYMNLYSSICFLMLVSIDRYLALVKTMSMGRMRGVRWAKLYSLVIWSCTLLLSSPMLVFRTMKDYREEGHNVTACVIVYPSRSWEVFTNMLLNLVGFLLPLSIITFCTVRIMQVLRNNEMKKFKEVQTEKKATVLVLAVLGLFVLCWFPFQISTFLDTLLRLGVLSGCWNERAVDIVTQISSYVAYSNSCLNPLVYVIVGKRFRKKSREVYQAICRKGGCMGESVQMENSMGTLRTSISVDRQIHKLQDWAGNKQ
Description: Thus, in vitro studies were performed on standard assay systems, namely, guinea-pig ileum (GPI), rat uterus (RU) and rabbit jugular vein (RJV). […] The potency of each compound was assessed as a pA2 value according to the method of Arunlakshana & Schild, Br. J. Pharmacol. Chemother., 14:48-58 (1959). The pA2 can be defined as the negative logarithm of the molar concentration of the antagonist in the presence of which the potency of the agonist is reduced two-fold, i.e., twice the amount of agonist is required to produce a given response in the presence of, than in the absence of, the antagonist. A high potency of antagonism is indicated by a high pA2 value. i.e., a low concentration of antagonist is effective.
The percentage recovery (% Rec) was also determined for compounds with respect to each assay.
With respect to duration of activity, it is noted that after exposure to the highest concentration of antagonist, each tissue was washed extensively and then assessed for recovery from the antagonist effect.
Potency in the rat uterus assay was assessed as described above and pA2 values determined.

BK2 receptor = target: T2, BK2 receptor (Oryctolagus cuniculus, UniProt Q28642); test: blood pressure response to BK2 agonist in LPS-pretreated rabbits; format: in vivo, rabbit; parameters: key to observed antagonist activity BK2, 1 / observed antagonist activity BK2, 3 / observed antagonist activity BK2, 10: +: complete blockade of the blood pressure response to the appropriate agonist; ±: partial blockade; -: no observable effect at the dose indicated; settings: rabbits given LPS (10 μg) 20 hours before; for observed antagonist activity BK2, 1: 1 μg kg^-1 min^-1; for observed antagonist activity BK2, 3: 3 μg kg^-1 min^-1; for observed antagonist activity BK2, 10: 10 μg kg^-1 min^-1
T2 construct: from tissue; host or cells: whole animal (rabbit, LPS-pretreated), blood pressure response
T2 sequence (Q28642 1-367): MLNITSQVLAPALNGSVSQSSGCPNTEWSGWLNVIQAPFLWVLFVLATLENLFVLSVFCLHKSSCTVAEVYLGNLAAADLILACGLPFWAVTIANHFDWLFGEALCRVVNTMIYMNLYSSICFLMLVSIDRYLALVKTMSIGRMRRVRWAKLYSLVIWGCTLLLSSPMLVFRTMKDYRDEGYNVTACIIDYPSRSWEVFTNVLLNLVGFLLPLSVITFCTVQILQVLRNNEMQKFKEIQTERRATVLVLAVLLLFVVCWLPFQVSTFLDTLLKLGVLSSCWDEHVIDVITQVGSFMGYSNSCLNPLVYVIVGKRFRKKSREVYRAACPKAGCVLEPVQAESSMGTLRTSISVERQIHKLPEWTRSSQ
Source text: (§1) That heterodimeric constructs block the activities attributable to two different receptor populations simultaneously when administered to an intact animal has been known using a standard assay of BK2 and BK1 receptor activity (see, deBlois, Bouthillier, and Marceau, Brit. J. Pharm., 103, 1057-1066, 1991). In normal rabbits, no changes in systemic arterial blood pressure can be detected in response to challenges with BK1 receptor agonists. There is, however, a predictable and reproducible response to BK2 agonists constituatively present. After stimulation with LPS BK1 receptor activity will develop over time such that profound responses to doses of BK1 agonists that were previously inconsequential in nature are observed after a 3-4 hour period. Responses to BK2 agonists are unchanged in these animals. At this point, one can test directly the ability to block both BK1 and BK2 mediated reductions in systemic blood pressure simultaneously with a heterodimeric antagonist.
(§2) FIGS. 8a, b and c comprise actual blood pressure traces from a series of experiments designed to illustrate the ability of a representative heterodimer (CP-0364) to block both BK1 - and BK2 - mediated hypotensive responses simultaneously.
(§3) The expected antagonist activity is based on the data summarized in Tables K and L. The in vivo experimental data reported are qualitative measurements of antagonist activity at three different doses (1, 3 and 10 μg kg^-1 min^-1) in rabbits given a sub-lethal dose of LPS (10 μg), 20 hours before initiation of the experiment.

BK1 receptor [1] = target: T3, BK1 receptor (Oryctolagus cuniculus, UniProt P48748); test: rabbit aorta in vitro, reversal of des-Arg^9 -BK contraction; parameters: on rabbit aorta (BK1 -receptor) in vitro; from tissue; host or cells: rabbit aorta; settings: negative log of molar concentration causing 50% reversal of des-Arg^9 -BK (10^-7 M) contraction
T3 sequence (P48748 1-352): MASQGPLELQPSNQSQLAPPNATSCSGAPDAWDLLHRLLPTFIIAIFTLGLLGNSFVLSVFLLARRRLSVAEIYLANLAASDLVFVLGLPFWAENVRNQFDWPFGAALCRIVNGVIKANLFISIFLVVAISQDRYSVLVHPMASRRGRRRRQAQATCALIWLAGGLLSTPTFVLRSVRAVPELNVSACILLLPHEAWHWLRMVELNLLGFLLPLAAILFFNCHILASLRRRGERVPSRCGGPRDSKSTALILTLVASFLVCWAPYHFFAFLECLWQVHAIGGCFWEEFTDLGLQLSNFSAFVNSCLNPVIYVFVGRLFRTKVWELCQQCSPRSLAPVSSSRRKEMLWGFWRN
Description: Each antagonist was then added, in a cumulative fashion, on top of the contraction and the negative log of the molar concentration of the antagonist causing a 50% reversal (IC50) of the […] measured.

BK1 receptor [2] = target: T3, BK1 receptor; test: blood pressure response to BK1 agonist in LPS-pretreated rabbits; format: in vivo, rabbit; parameters: from tissue; host or cells: whole animal (rabbit, LPS-pretreated), blood pressure response; key to observed antagonist activity BK1, 1 / observed antagonist activity BK1, 3 / observed antagonist activity BK1, 10: +: complete blockade of the blood pressure response to the appropriate agonist; ±: partial blockade; -: no observable effect at the dose indicated; settings: rabbits given LPS (10 μg) 20 hours before; for observed antagonist activity BK1, 1: 1 μg kg^-1 min^-1; for observed antagonist activity BK1, 3: 3 μg kg^-1 min^-1; for observed antagonist activity BK1, 10: 10 μg kg^-1 min^-1
Source text: as §1, §2, §3

SMILES	pA2 rat uterus (BK2) (BK2 -receptor)	observed antagonist activity BK2, 1 (BK2 receptor)	observed antagonist activity BK2, 3 (BK2 receptor)	BK1 rabbit aorta IC50 (BK1 receptor [1])	observed antagonist activity BK1, 1 (BK1 receptor [2])	observed antagonist activity BK1, 3 (BK1 receptor [2])	observed antagonist activity BK1, 10 (BK1 receptor [2])	Kb (BK2 -receptor; read-out: pA2 rat uterus (BK2) (converted)) [nM]	IC50 (BK1 receptor [1]) [nM]	observed antagonist activity BK2, 10 (BK2 receptor)
N=C(N)NCCC[C@@H](N)C(=O)N[C@@H](CCCNC(=N)N)C(=O)N1CCC[C@H]1C(=O)N1C[C@H](O)C[C@H]1C(=O)NCC(=O)N[C@@H](Cc1ccccc1)C(=O)N[C@@H](CO)C(=O)N1Cc2ccccc2C[C@@H]1C(=O)N1[C@H](C(=O)O)C[C@@H]2CCCC[C@@H]21 [CP-0267, D R--R--P--J--G--F--S--D Tic--Oic] (HELM PEPTIDE1{[dR].R.P.[Hyp].G.F.S.[O=C([C@H]1Cc2ccccc2CN1[*:1])[*:2]].[O=C(O)[C@@H]1C[C@@H]2CCCC[C@@H]2N1[*:1]]}$$$$V2.0; N-terminus and C-terminus assumed)	5.7 ± 0.1	-	-	7.5 ± 0.2	-	-	+			
CC(C)C[C@H](NC(=O)[C@@H](Cc1ccccc1)NC(=O)[C@H](CSC1CC(=O)N(CCCCCCN2C(=O)CC(SC[C@H](NC(=O)[C@H](Cc3ccccc3)NC(=O)CNC(=O)[C@@H]3C[C@@H](O)CN3C(=O)[C@@H]3CCCN3C(=O)[C@H](CCCNC(=N)N)NC(=O)[C@H](N)CCCNC(=N)N)C(=O)N[C@H](Cc3ccccc3)C(=O)N[C@@H](CC(C)C)C(=O)N[C@@H](CCCNC(=N)N)C(=O)O)C2=O)C1=O)NC(=O)[C@H](Cc1ccccc1)NC(=O)CNC(=O)[C@@H]1C[C@@H](O)CN1C(=O)[C@@H]1CCCN1C(=O)[C@H](CCCNC(=N)N)NC(=O)[C@H](N)CCCNC(=N)N)C(=O)O (stereo partly shown) [CP-0273] (HELM PEPTIDE1{[dR].R.P.[Hyp].G.F.C.[dF].L.R}|PEPTIDE2{[dR].R.P.[Hyp].G.F.C.[dF].L}|CHEM1{[O=C1CC([*:1])C(=O)N1CCCCCCN1C(=O)CC([*:2])C1=O]}$PEPTIDE1,CHEM1,7:R3-1:R1|PEPTIDE2,CHEM1,7:R3-1:R2$$$V2.0; N-terminus and C-terminus assumed)								6.31	2000	
N=C(N)NCCC[C@@H](N)C(=O)N[C@@H](CCCNC(=N)N)C(=O)N1CCC[C@H]1C(=O)N1C[C@H](O)C[C@H]1C(=O)NCC(=O)N[C@@H](Cc1cccs1)C(=O)N[C@@H](CO)C(=O)N1Cc2ccccc2C[C@@H]1C(=O)N1[C@H](C(=O)O)C[C@@H]2CCCC[C@@H]21 [CP-0345, D R--R--P--J--G--Thi--S--D Tic--Oic] (H-[dR]RP[Hyp]G[2Thi]S[dTic][Oic]-OH; N-terminus and C-terminus assumed)	7.6 ± 0.4	-		7.1 ± 0.1	-	+	+			+
CC(C)C[C@H](NC(=O)[C@@H]1CCCN1C(=O)[C@H](CO)NC(=O)[C@H](Cc1ccccc1)NC(=O)CNC(=O)[C@@H]1C[C@@H](O)CN1C(=O)[C@@H]1CCCN1C(=O)[C@H](CS)NC(=O)[C@@H](N)CCCCN)C(=O)O [CP-0374, K--C--P--J--G--F--S--P--L] (HELM PEPTIDE1{K.C.P.[Hyp].G.F.S.P.L}$$$$V2.0; N-terminus and C-terminus assumed)	no measurable activity			6.5 ± 0.3						
CC(C)C[C@H](NC(=O)[C@@H](Cc1ccccc1)NC(=O)[C@H](CO)NC(=O)[C@H](Cc1ccccc1)NC(=O)CNC(=O)[C@@H]1C[C@@H](O)CN1C(=O)[C@@H]1CCCN1C(=O)[C@H](CSC1CC(=O)N(CCCCCCN2C(=O)CC(SC[C@H](NC(=O)[C@H](Cc3ccccc3)NC(=O)CNC(=O)[C@@H]3C[C@@H](O)CN3C(=O)[C@@H]3CCCN3C(=O)[C@H](CCCNC(=N)N)NC(=O)[C@H](N)CCCNC(=N)N)C(=O)N[C@H](Cc3ccccc3)C(=O)N[C@@H](CC(C)C)C(=O)N[C@@H](CCCNC(=N)N)C(=O)O)C2=O)C1=O)NC(=O)[C@H](N)CCCNC(=N)N)C(=O)O (stereo partly shown) [CP-0386] (HELM PEPTIDE1{[dR].R.P.[Hyp].G.F.C.[dF].L.R}|PEPTIDE2{[dR].C.P.[Hyp].G.F.S.[dF].L}|CHEM1{[O=C1CC([*:1])C(=O)N1CCCCCCN1C(=O)CC([*:2])C1=O]}$PEPTIDE1,CHEM1,7:R3-1:R1|PEPTIDE2,CHEM1,2:R3-1:R2$$$V2.0; N-terminus and C-terminus assumed)	7.6 ± 0.1	+	+	7.1 ± 0.2	+	+	+			+
CC(C)C[C@H](NC(=O)[C@@H]1CCCN1C(=O)[C@H](CO)NC(=O)[C@H](Cc1ccccc1)NC(=O)CNC(=O)[C@@H]1C[C@@H](O)CN1C(=O)[C@@H]1CCCN1C(=O)[C@H](CCCCNC(=O)CCCCCN1C(=O)CC(SC[C@H](NC(=O)[C@H](Cc2ccccc2)NC(=O)CNC(=O)[C@@H]2C[C@@H](O)CN2C(=O)[C@@H]2CCCN2C(=O)[C@H](CCCNC(=N)N)NC(=O)[C@H](N)CCCNC(=N)N)C(=O)N[C@H](Cc2ccccc2)C(=O)N[C@@H](CC(C)C)C(=O)N[C@@H](CCCNC(=N)N)C(=O)O)C1=O)NC(=O)[C@H](N)CCCNC(=N)N)C(=O)O (stereo partly shown) [CP-0389] (HELM PEPTIDE1{[dR].R.P.[Hyp].G.F.C.[dF].L.R}|PEPTIDE2{[dR].K.P.[Hyp].G.F.S.P.L}|CHEM1{[O=C1CC([*:1])C(=O)N1CCCCCC(=O)[*:2]]}$PEPTIDE1,CHEM1,7:R3-1:R1|PEPTIDE2,CHEM1,2:R3-1:R2$$$V2.0; N-terminus and C-terminus assumed; bridges inferred)	7.4 ± 0.1			6.5 ± 0.1						
